The source of these data is patent US10274488B2, “Glycan arrays on PTFE-like aluminum coated glass slides and related methods” (Academia Sinica, priority 2008, dated 2019).

Each structure is given as a SMILES string.

The subject of one assay is cellulase from A. niger. Put plainly: Enzymatic hydrolysis on the PTFE-like ACG slide with cellulase from A. niger, MS-TOF readout. As to conditions: reaction on the ACG slide. The format is biochemical, Aspergillus niger. On the procedure:
(§1) Enzymatic hydrolysis of the immobilized poly-fluorinated cellobiose 8 (see FIG. 14) was first conducted in situ on the phosphonic acid slide surface. Three commercially available cellulases, Aspergillus niger (A. niger), Trichoderma reesei (T. reesei), and Trichoderma viride (T. viride) were prepared separately at 5 U/mL in a sodium acetate (25 mM) buffer solution (pH 5) and loaded onto the functionalized slide which has been divided into 16 wells using Fast Frame reaction chambers. For comparison, an aliquot of enzyme solution (100 μL) was added to the solution of fluorinated cellobiose (100 μL of 0.5 mM) in eppendorfs to carry out the enzymatic hydrolysis reactions in solution. After the reaction, it was transferred to the empty wells of the same slide. Each well was rinsed separately three times with de-ionized water and the slide was dried again under high vacuum before subjecting to MS-TOF analysis.
(§2) Under MS-TOF analysis, the clean background baseline allowed calculation of the percentage of hydrolyzed components for each sample. As shown in the MS-TOF results in FIG. 20, percentages of hydrolyzed products are calculated from the peak intensities of each spectrum. According to implementations of experimental data shown in FIG. 20, MS-TOF data of enzymatic hydrolysis of poly-fluorinated cellobiose in solution in FIG. 20A and immobilized on PTFE-like ACG slide in FIG. 20B. The control are the same experimental conditions run without enzymes in (a); (b), (c), and (d) are experimental conditions with the cellulase proteins from A. niger (b), T. reesei (c), and T. viride (d).
(§3) Cellulase was prepared (5 U/mL in 25 mM pH 5.05 NaOAc buffer solution). Substrate was also dissolved in NaOAc buffer solution (25 mM, pH 5.05) to give 0.5 mM substrate solution. Add 50 μL cellulase solution to 50 μL substrate solution onto the glass slide which was loaded in FAST® Frame multi-slide plate to have a 2.5 U/mL cellulase solution with 0.25 mM substrate. The well of the plate was sealed and the whole assembly was incubated in 37° C. for 18 hours. Put the slide in dry box to remove the water, and then use high vacuum to remove trace water. 100 uL water was used to rinse each well of the FAST® Frame multi-slide plate to solve and remove the salt of the buffer solution. Remove any residual water on the plate by high vacuum and then analyzed the slide by MALDI-TOF Ultra-Flex II.

A further assay concerns cellulase from T. reesei. Put plainly: Enzymatic hydrolysis on the PTFE-like ACG slide with cellulase from T. reesei, MS-TOF readout. The format is biochemical, Trichoderma reesei. The following applies: reaction on the ACG slide, pH 5. On the procedure: as §1, §2, §3
Assay [1] has as its system cellulase from T. viride. The experiment in a line: Enzymatic hydrolysis in solution with cellulase from T. viride, MS-TOF readout. The format is biochemical, Trichoderma viride. As to conditions: reaction in solution, pH 5. The method, then:
as §1, §2
Cellulase was prepared (5 U/mL in 25 mM pH 5.05 NaOAc buffer solution). Substrate was also dissolved in NaOAc buffer solution (25 mM, pH 5.05) to give 0.5 mM substrate solution. Add 100 uL cellulase solution to 100 uL substrate solution in eppendorf to have a 2.5 U/mL cellulase solution with 0.25 mM substrate. This solution was incubated in 37° C. for 18 hours. Add 100 μL incubated solution onto the slide loaded in FAST® Frame. Put the slide in dry box to remove the water, and then use high vacuum to remove trace water. 100 μL water was used to rinse each well of the FAST® Frame multi-slide plate to solve and remove the salt of the buffer solution. Remove any residual water on the plate by high vacuum and then analyzed the slide by MALDI-TOF Ultra-Flex II.

Assay [2] deals with cellulase from T. viride. The experiment in a line: Enzymatic hydrolysis on the PTFE-like ACG slide with cellulase from T. viride, MS-TOF readout. The format is biochemical, Trichoderma viride. As to conditions: reaction on the ACG slide, pH 5. The method, then: as §1, §2, §3

For the compound `O=C(NCCCCCO[C@@H]1O[C@H](CO)[C@@H](O[C@@H]2O[C@H](CO)[C@@H](O)[C@H](O)[C@H]2O)[C@H](O)[C@H]1O)OCCCC(F)(F)C(F)(F)C(F)(F)C(F)(F)C(F)(F)C(F)(F)C(F)(F)C(F)(F)F` [Compound 8, [(4,4,5,5,6,6,7,7,8,8,9,9,10,10,11,11,12,12,12-nonadecafluorododecoxycarbonyl-amino)pentyl] ß-D-cellobioside], the “Biose (un-hydrolyzed cellobiose), percentage of hydrolyzed pattern” value worked out at 1% in the assay on cellulase from A. niger (pH 5); 100% with cellulase from A. niger (pH 5, listed as cellobiose); 69% in the assay with cellulase from T. reesei; 3% with cellulase from T. viride [1]; 77% in the assay with cellulase from T. viride [2]. Also, the “F-tail, percentage of hydrolyzed pattern” value was 0/0% with cellulase from A. niger (pH 5), 7% in the assay on cellulase from T. reesei, 38% in the assay on cellulase from T. viride [1] and 6% with cellulase from T. viride [2]. Besides, the “Glucose, percentage of hydrolyzed pattern” value with cellulase from A. niger (pH 5) was 0%; in the assay with cellulase from T. reesei it was 25%; with cellulase from T. viride [1] it was 58%; with cellulase from T. viride [2], 17%. Moreover, the “Triose, percentage of hydrolyzed pattern” value with cellulase from A. niger (pH 5) is 0%; with cellulase from T. reesei, 0/0%; in the assay with cellulase from T. viride [1], 0/0%; in the assay with cellulase from T. viride [2], 0/0%.
